3 molecules from ChEMBL document CHEMBL4406902, “Structure-based analysis and biological characterization of imatinib derivatives reveal insights towards the inhibition of wild-type BCR-ABL and its mutants” (Bioorg Med Chem Lett, 2019) can be followed below.

A word on the IC50: it is the concentration at which inhibition is half-maximal.

Test [1] is described as follows: Inhibition of BCR/Abl P190 mutant (unknown origin) transfected in mouse Ba/F3 cells assessed as inhibition of cell proliferation measured after 72 hrs by CellTiter-Glo luminescent cell viability assay. As to conditions: BaF3, 72 h. The format is cell-based. (In ATP-based viability assays light output follows the ATP content of the culture.)
Test [2] can be described thus: Inhibition of BCR/Abl P230 mutant (unknown origin) transfected in mouse Ba/F3 cells assessed as inhibition of cell proliferation measured after 72 hrs by CellTiter-Glo luminescent cell viability assay. As to conditions: BaF3, 72 h. It is filed as cell-based.

As for `Cc1ncc(NC(=O)c2ccc(CN3CCN(C)CC3)c(C(F)(F)F)c2)cc1Nc1nccc(-c2cccnc2)n1` [FLUMATINIB], the figures for the 50% inhibitory concentration (IC50) in test [1] and in test [2] were 13.3 nM and 10.3 nM, respectively.

In the case of `Cc1ccc(NC(=O)c2ccc(CN3CCN(C)CC3)cc2)cc1Nc1nccc(-c2cccnc2)n1` [IMATINIB], the IC50 in test [1] turned out to be 346 nM; in test [2] it was 222 nM.

As to `Cc1cn(-c2cc(NC(=O)c3ccc(C)c(Nc4nccc(-c5cccnc5)n4)c3)cc(C(F)(F)F)c2)cn1` [NILOTINIB], the half-maximal inhibitory concentration (IC50) came out at 23.2 nM in test [1] and 19 nM in test [2].
